These results are taken from patent EP4671262A1, “NOVEL PEPTIDE EXHIBITING SKIN CONDITION IMPROVEMENT ACTIVITY AND COSMETIC COMPOSITION CONTAINING SAME” (Daebong LS Co., Ltd., priority 2023, dated 2024).

One test deals with B16F10 cells. In words: Melanin synthesis inhibition in α-MSH-stimulated melanocytes. It counts as cell-based, Mouse. As to conditions: 72 hours, α-MSH alone = 100. The method, then:
Mouse-derived melanocytes (B16F10 cells) were obtained from the American Type Culture Collection (ATCC) and used. The cells were cultured in Dulbecco's Modified Eagle's Medium (DMEM) supplemented with 1% penicillin-streptomycin and 10% fetal bovine serum (FBS) at 37 °C in a 5% CO2 incubator, and subcultured every 3 to 4 days.
B16F10 cells were seeded at 6.0 × 10^4 cells/well in a 6-well plate and cultured for 24 hours at 37 °C in a 5% CO2 incubator. The culture medium was then replaced with phenol red-free, serum-free DMEM, followed by treatment with α-MSH, a melanin production-inducing hormone, and the peptide from the above Preparation Example at concentrations ranging from 1 to 100 µM. The cells were incubated for 72 hours, after which they were collected and lysed with 1 N NaOH in an 80 °C heating block to dissolve intracellular melanin. The absorbance of the resulting solution was measured at 490 nm. The control group was treated with arbutin at a concentration of 500 µg/mL.

The next test has as its system NHDF cells. The test is described as follows: Procollagen Type I Peptide (PIP) production, EIA of culture supernatant. In kind it is cell-based, Human. Particulars: 24 hours, untreated group = 100. The method, then: Normal Human Dermal Fibroblasts (NHDF) were obtained from Lonza (Lonza Walkersville, Inc.) and cultured in FBM (Fibroblast Basal Medium) supplemented with 0.1% hFGF-B, insulin, GA-1000, and 2% FBS at 37°C in a 5% CO2 incubator. Subculture was performed every 2 to 3 days.
NHDF cells were seeded at 2.0 × 10^4 cells/well in a 24-well plate and incubated for 24 hours at 37°C in a 5% CO2 incubator. After incubation, the culture medium was replaced with serum-free FBM, and the peptide prepared in the above Example was applied at concentrations of 1-100 µM, followed by incubation for 24 hours. The supernatant from each experimental group was collected, and the amount of procollagen released into the medium was measured. The positive control group was treated with ascorbic acid at a concentration of 0.001 v/v%. Measurement of procollagen levels was performed using a Procollagen Type I Peptide (PIP) EIA Kit (Takara Biomedical Co.) according to the manufacturer's protocol. The quantitative results of procollagen type I peptide production following treatment with the peptide of the Example are shown in Table 2 and Fig. 3.

A further test has as its system HaCaT cells. The test is described as follows: Hyaluronic acid (HA) production, ELISA of culture supernatant. In kind it is cell-based, human. Particulars: 24 hours, untreated group = 100. The method, then:
The HaCaT human keratinocyte cell line was obtained from Cell Line Service GmbH (Germany). The cells were cultured in DMEM containing 1% penicillin-streptomycin and 10% fetal bovine serum (FBS) at 37°C in a 5% CO2 incubator, and subculture was performed every 2 to 3 days.
HaCaT cells were seeded at 1.0 × 10^5 cells/well in a 24-well plate and incubated for 24 hours at 37°C in a 5% CO2 incubator. After incubation, the culture medium was replaced with serum-free DMEM, and the peptide prepared in the above Example was applied at concentrations of 50-200 µM, followed by incubation for 24 hours. The supernatant from each experimental group was collected, and the amount of hyaluronic acid (HA) released into the medium was measured. The positive control group was treated with N-acetylglucosamine at a concentration of 10 mM. Measurement of hyaluronic acid production was conducted using a Hyaluronic Acid ELISA Kit (Cusabio Biotechnology Co., Ltd.) following the manufacturer's protocol.
For orientation: In an ELISA, binding on a coated surface is turned into a signal by an enzyme label.

In the case of `OC[C@H]1O[C@@H](Oc2ccc(O)cc2)[C@H](O)[C@@H](O)[C@@H]1O` [Arbutin, arbutin], in the test with B16F10 cells (500 µg/mL (control) with α-MSH (200 nM)), the “Melanin production (%)” value came out at 59.6±0.8%.

With `O=C1O[C@H]([C@@H](O)CO)C(O)=C1O` [Asc.A, ascorbic acid], the “Procollagen production (%)” value with NHDF cells (10 µg/mL (positive control)) came out at 159.45±3.8%.

For the compound `CC(=O)N[C@H]1C(O)O[C@H](CO)[C@@H](O)[C@@H]1O` (stereo partly shown) [NAG, N-acetylglucosamine], in the test on HaCaT cells (10 mM (positive control)), the “Hyaluronic acid production (%)” value was 125.52±1.18%.

With “Ala-Ala-Gln-Pro-Arg (AAQPR; printed: Ala-Ala-Gln-Pro-Arg)”, the “Procollagen production (%)” value was 105.45±3.15% in the test with NHDF cells (1 µM), 129.75±9.74% in the test with NHDF cells (10 µM), 132.64±13.74% in the test on NHDF cells (50 µM) and 134.92±1.3% in the test on NHDF cells (100 µM). In addition, the “Hyaluronic acid production (%)” value stood at 107.14±1.08% with HaCaT cells (50 µM), 130.93±0.59% with HaCaT cells (100 µM) and 136.91±6.87% in the test with HaCaT cells (200 µM). Further, the “Melanin production (%)” value was determined as 100.86±4.32% with B16F10 cells (1 µM with α-MSH (200 nM)), 89.62±2.95% with B16F10 cells (10 µM with α-MSH (200 nM)) and 79.76±4.18% in the test with B16F10 cells (100 µM with α-MSH (200 nM)).
